Laboratory results from patent US9023853B2, “Janus kinase 2 (JAK2) inhibitor for the treatment of lupus” (Cephalon, Inc., priority 2010, dated 2015).

What was measured:
Type in all cases: in vivo, mouse
pSTAT3 = assay: Pharmacodynamic kidney pSTAT3 (JAK2 inhibition marker) in NZM mice; conditions: vs vehicle or CTX, p<0.01
Description: Age mated, female, NZM or NZW/LacJ, mice were matured for the study of lupus nephritis for a total of 7 months or 210 days at which time urine was collected for proteinuria detection. Mice with 0.5-1.0 mg/ml of urine protein as determined by an optical density-based total protein precipitation assay and cross-checked for 30-300 mg/dl of protein as determined by a stick assay were considered proteinuria positive and selected for study entry. Groups were normalized to contain a Gaussian distribution of proteinuria positive animals (i.e., ⅓ low proteinuria, ⅓ medium, ⅓ high) then randomized between groups before ear marking and taking baseline measures including urine and serum collections. A total of five mice from the total population were randomly selected for baseline kidney histology evaluation. Treatments and tests for each group are as described in FIG. 12. Briefly, with a minimum of 10 mice per group, COMPOUND A was administered at 100 mg/kg or 55 mg/kg, both twice a day and orally. […] Vehicle included 3% DMSO, 10% Solutol and 87% PBS. […] End-stage lupus nephritis was evaluated by histopathology and scored by a board certified pathologist for the assessment of total renal damage in diseased animals using the scoring method described by Smith et al (Smith, Dong et al. 2007). […] Day-98 or “end of treatment/study” represents 310 days of age for the NZM animals.

[1] = tested on: c-telopeptide collagen type I cross-linker; CTx; assay: Osteoclast activity: serum bone resorption biomarker CTx in NZM mice
Text: Vehicle included 3% DMSO, 10% Solutol and 87% PBS.

IL-4 = assay: Serum IL-4 in NZM mice
Description: For the processing of serum samples for cytokine analysis, frozen plasma at −80° C. was thawed on ice, vortexed, and centrifuged for 10 minutes to remove debris and aggregates. A total of 25-50 μL of serum was used for Luminex® assays following the manufacturer's instructions. Ten different mouse cytokines were measured using the mouse cytokine 10-plex bead kit (Invitrogen, Carlsbad, Calif., no. LMC0001). Briefly, filter plates (Millipore, Billerica, Mass., no. MAIPSWU10), were pre-wet with 200 μL of wash solution (kit component) and 25 μL of beads were added per well. […]
Age mated, female, NZM or NZW/LacJ, mice were matured for the study of lupus nephritis for a total of 7 months or 210 days at which time urine was collected for proteinuria detection. Mice with 0.5-1.0 mg/ml of urine protein as determined by an optical density-based total protein precipitation assay and cross-checked for 30-300 mg/dl of protein as determined by a stick assay were considered proteinuria positive and selected for study entry. […] End-stage lupus nephritis was evaluated by histopathology and scored by a board certified pathologist for the assessment of total renal damage in diseased animals using the scoring method described by Smith et al (Smith, Dong et al. 2007). […]

CN1CCN(c2cccc(Nc3nc4c(-c5ccc(S(C)(=O)=O)cc5)cccn4n3)c2)CC1 [COMPOUND A, [8-(4-methanesulfonyl-phenyl)-[1,2,4]triazolo[1,5-a]pyridin-2-yl]-[3-(4-methyl-piperazin-1-yl)-phenyl]-amine]
levels of pSTAT3 in the kidneys (pSTAT3): significantly lower | serum CTx decrease vs. vehicle ([1]; 55 mg/kg): 37.8% | serum CTx decrease vs. vehicle ([1]; 100 mg/kg): 46.7% | serum IL-4 decrease compared to vehicle (IL-4; 55 mg/kg): 98.7% | serum IL-4 decrease compared to vehicle (IL-4; 100 mg/kg): 91.8%
